pKi: −log10 of the molar value.
Molecular target: LRRK2 (Homo sapiens (Human), UniProt Q5S007, G2019S)
Experiment: In Vitro LRRK2 LabChip Assay (LRRK2 Ki)
Assay type: biochemical
Method: In Vitro LRRK2 LabChip Assay
This assay was used to determine a compound's potency in inhibiting activity of LRRK2 by determining, Kiapp, IC50, or percent inhibition values. In a polypropylene plate, LRRK2, fluorescently-labeled peptide substrate, ATP and test compound were incubated together. Using a LabChip 3000 (Caliper Life Sciences), after the reaction the substrate was separated by capillary electrophoresis into two populations: phosphorylated and unphosphorylated. The relative amounts of each were quantitated by fluorescence intensity. LRRK2 Ki was determined according to the equation: Y=V0*(1−((x+Ki*(1+S/Km)+Et)/(2*Et)−(((x+Ki*(1+S/Km)+Et)^2−(4*Et*x))^0.5)/(2*Et))). Ki values in Table 4 and elsewhere herein are shown in μM.
Assay conditions and materials used were as follows:
LRRK2 Wild type in 5 mM MgCl2: 15 nM (Invitrogen lot #500607F)
Kinase reaction time: 2 hours
Wild type in 5 mM MgCl2: 80 μM
Kinase: LRRK2 G2019S (Invitrogen cat #PV4882). • LRRK2 Wild type (Invitrogen cat #PV4874).
Substrate: 5FAM-GAGRLGRDKYKTLRQIRQ-CONH2
Complete Reaction Buffer: H2O/25 mM Tris, pH 8.0/5 mM MgCl2/2 mM DTT/0.01% Triton X-100.
For serial dilutions, 34.6 μl DMSO was added to columns 3-24. For the assay controls, 37.5 μl DMSO was added to columns 1 and 2 of rows A and P. a,d and 50 μl 25 μM G-028831 (Staurosporine) was added to columns 1 and 2, row B. For the samples: to start at 100 μM, 37.5 μl DMSO was to columns 1 and 2, then 12.5 μl 10 mM compound; to start at 10 μM, 78 μl DMSO was added to columns 1 & 2, then 2 μl 10 mM compound; and to start at 1 μM, 25 μM compound (2 μl 10 mM cmpd+798 μl DMSO) was added to empty columns 1 and 2. A Precision instrument was used to perform 1:3.16 serial dilutions (“PLK_BM_serial_halflog”).
ATP was diluted to 282.1 μM in Complete Kinase Buffer (final concentration was 130 μM).
In Complete Reaction Buffer, substrate was diluted to 4 μM. Equal volumes of Complete Reaction Buffer and 4 μM substrate were combined to obtain the blank. Equal volumes of Complete Reaction Buffer and 4 μM substrate were combined and to the combined solution was added 2× final LRRK2 concentration.
To a 50 μl polypropylene plate, 5 μl/well buffer/substrate was added by hand to Blank wells. A Biomek FX was used to start the kinase reaction (“PLK SAR 23 ATP”). The following were added to the appropriate wells:
The plate was incubated for 2 hours in the dark. Biomek FX was used to stop the kinase reaction (“PLK Stop”), and 10 μl/well Stop solution was added to the Assay Plate.
Results were read on the LabChip 3000.
The LabChip 3000 was run using the job “LRRK2 IC50” with the following job settings: […]

Chain of LRRK2 (Q5S007 whole entry G2019S): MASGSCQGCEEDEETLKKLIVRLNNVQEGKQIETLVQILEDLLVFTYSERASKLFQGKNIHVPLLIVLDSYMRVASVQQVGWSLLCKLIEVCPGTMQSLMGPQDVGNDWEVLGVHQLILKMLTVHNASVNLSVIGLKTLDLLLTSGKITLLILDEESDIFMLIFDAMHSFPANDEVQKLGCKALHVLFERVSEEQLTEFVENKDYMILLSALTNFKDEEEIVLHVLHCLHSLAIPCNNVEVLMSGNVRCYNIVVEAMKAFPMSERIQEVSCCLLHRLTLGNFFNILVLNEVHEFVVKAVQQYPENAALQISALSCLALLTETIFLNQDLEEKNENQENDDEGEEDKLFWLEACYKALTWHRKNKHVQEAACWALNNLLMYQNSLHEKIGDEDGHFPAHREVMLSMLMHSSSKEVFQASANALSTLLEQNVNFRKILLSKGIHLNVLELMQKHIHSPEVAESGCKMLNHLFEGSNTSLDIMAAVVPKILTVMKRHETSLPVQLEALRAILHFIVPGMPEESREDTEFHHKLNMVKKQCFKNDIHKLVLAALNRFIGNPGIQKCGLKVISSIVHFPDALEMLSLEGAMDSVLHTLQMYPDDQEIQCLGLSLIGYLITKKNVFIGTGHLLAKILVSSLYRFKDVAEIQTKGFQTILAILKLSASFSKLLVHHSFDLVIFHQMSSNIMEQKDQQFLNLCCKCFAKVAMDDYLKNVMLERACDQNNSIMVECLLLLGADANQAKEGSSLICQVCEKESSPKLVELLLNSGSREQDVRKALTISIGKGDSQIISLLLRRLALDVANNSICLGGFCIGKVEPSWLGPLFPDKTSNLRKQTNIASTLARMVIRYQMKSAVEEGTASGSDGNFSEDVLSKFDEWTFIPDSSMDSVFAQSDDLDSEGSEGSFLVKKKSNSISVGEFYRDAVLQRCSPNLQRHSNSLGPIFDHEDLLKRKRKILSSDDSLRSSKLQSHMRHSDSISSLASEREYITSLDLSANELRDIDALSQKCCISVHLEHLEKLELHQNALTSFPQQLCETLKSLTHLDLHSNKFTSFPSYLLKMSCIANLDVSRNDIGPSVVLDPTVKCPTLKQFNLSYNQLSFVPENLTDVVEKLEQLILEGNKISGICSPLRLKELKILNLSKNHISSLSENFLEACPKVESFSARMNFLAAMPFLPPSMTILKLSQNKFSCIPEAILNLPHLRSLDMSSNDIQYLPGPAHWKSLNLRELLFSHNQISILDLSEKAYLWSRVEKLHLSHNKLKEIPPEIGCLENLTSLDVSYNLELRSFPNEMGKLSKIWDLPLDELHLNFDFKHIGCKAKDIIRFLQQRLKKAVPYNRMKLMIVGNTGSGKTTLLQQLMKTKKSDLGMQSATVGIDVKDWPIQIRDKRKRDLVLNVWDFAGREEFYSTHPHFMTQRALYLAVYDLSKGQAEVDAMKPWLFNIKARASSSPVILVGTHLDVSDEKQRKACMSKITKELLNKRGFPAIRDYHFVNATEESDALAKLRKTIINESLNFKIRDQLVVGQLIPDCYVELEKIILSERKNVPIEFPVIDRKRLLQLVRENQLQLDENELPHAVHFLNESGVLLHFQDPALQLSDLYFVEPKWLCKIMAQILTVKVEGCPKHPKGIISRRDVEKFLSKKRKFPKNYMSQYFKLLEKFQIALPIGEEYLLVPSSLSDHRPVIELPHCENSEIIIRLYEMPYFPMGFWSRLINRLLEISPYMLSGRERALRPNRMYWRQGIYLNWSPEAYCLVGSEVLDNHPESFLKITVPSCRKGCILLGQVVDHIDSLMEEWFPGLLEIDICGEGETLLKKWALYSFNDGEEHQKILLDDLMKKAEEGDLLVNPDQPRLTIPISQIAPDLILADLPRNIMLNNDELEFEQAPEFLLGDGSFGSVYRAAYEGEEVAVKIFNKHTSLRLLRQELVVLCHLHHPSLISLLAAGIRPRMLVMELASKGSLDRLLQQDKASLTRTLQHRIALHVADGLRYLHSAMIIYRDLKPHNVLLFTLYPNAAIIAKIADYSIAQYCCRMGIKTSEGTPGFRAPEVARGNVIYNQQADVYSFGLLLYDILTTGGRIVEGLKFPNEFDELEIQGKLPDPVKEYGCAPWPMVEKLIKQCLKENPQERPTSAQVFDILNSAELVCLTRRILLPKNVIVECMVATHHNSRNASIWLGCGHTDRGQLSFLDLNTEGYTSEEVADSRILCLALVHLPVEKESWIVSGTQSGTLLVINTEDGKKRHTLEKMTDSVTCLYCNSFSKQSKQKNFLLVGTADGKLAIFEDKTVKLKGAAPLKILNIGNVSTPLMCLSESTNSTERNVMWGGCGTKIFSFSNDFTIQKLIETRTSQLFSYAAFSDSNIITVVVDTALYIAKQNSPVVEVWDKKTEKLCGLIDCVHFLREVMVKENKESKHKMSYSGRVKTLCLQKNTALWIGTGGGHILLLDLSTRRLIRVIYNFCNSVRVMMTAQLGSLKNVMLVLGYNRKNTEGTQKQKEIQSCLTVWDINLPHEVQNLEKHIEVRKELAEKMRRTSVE

Row | pKi | Compound
1 | 8.52 | CNc1nc(Nc2cc3c(cc2Cl)C(=O)N(C)CCO3)ncc1C(F)(F)F [Compound 1, 7-chloro-4-methyl-8-(4-(methylamino)-5-(trifluoromethyl)pyrimidin-2-ylamino)-3,4-dihydrobenzo[f][1,4]oxazepin-5(2H)-one]
2 | 9.00 | CNc1nc(Nc2cc3c(cc2OC)N(C)C(=O)C(C)(C)O3)ncc1Cl [Compound 2, 7-((5-chloro-4-(methylamino)pyrimidin-2-yl)amino)-6-methoxy-2,2,4-trimethyl-2H-benzo[b][1,4]oxazin-3(4H)-one]
3 | 9.00 | CNc1nc(Nc2cc3oc(C(=O)N(C)C)cc3cc2OC)ncc1C(F)(F)F [Compound 3, 5-methoxy-N,N-dimethyl-6-((4-(methylamino)-5-(trifluoromethyl)pyrimidin-2-yl)amino)benzofuran-2-carboxamide]
4 | 8.70 | CNc1nc(Nc2cc3c(cc2Cl)n(C)c(=O)n3C)ncc1C(F)(F)F [Compound 4, 5-chloro-1,3-dimethyl-6-((4-(methylamino)-5-(trifluoromethyl)pyrimidin-2-yl)amino)-1H-benzo[d]imidazol-2(3H)-one]
5 | 8.30 | CNc1nc(Nc2cc3nc(C)oc3cc2Cl)ncc1C(F)(F)F [Compound 6, N^2-(6-chloro-2-methylbenzo[d]oxazol-5-yl)-N^4-methyl-5-(trifluoromethyl)pyrimidine-2,4-diamine]
6 | 8.30 | CNc1nc(Nc2cc3c(cc2OC)CN(C)C3=O)ncc1C(F)(F)F [Compound 7, 5-methoxy-2-methyl-6-(4-(methylamino)-5-(trifluoromethyl)pyrimidin-2-ylamino)isoindolin-1-one]
7 | 8.52 | CNc1nc(Nc2cc3c(cc2Cl)C(=O)N(C)C3)ncc1Cl [Compound 8, 6-chloro-5-(5-chloro-4-(methylamino)pyrimidin-2-ylamino)-2-methylisoindolin-1-one]
8 | 9.00 | CNc1nc(Nc2cc3c(cc2Cl)C(=O)N(C)C3)ncc1C(F)(F)F [Compound 9, 6-chloro-2-methyl-5-(4-(methylamino)-5-(trifluoromethyl)pyrimidin-2-ylamino)isoindolin-1-one]
9 | 8.15 | CNc1nc(Nc2ccc3c(c2OC)CN(C2CC2)C3=O)ncc1C(F)(F)F [Compound 10, 2-cyclopropyl-4-methoxy-5-(4-(methylamino)-5-(trifluoromethyl)pyrimidin-2-ylamino)isoindolin-1-one]
10 | 9.00 | CNc1nc(Nc2ccc3c(c2OC)CN(C)C3=O)ncc1C(F)(F)F [Compound 11, 4-methoxy-2-methyl-5-(4-(methylamino)-5-(trifluoromethyl)pyrimidin-2-ylamino)isoindolin-1-one]
11 | 8.10 | CNc1nc(Nc2cc3c(cc2OC)N(C)C(=O)C(C)(C)O3)ncc1C(F)(F)F [Compound 12, 6-methoxy-2,2,4-trimethyl-7-(4-(methylamino)-5-(trifluoromethyl)pyrimidin-2-ylamino)-2H-benzo[b][1,4]oxazin-3(4H)-one]
12 | 8.40 | CNc1nc(Nc2cc3oc(=O)[nH]c3cc2Cl)ncc1Cl [Compound 13, 5-chloro-6-(5-chloro-4-(methylamino)pyrimidin-2-ylamino)benzo[d]oxazol-2(3H)-one]
13 | 8.15 | CNc1nc(Nc2cc3c(cc2OC)C(=O)N(C)CC3)ncc1C(F)(F)F [Compound 15, 7-methoxy-2-methyl-6-(4-(methylamino)-5-(trifluoromethyl)pyrimidin-2-ylamino)-3,4-dihydroisoquinolin-1(2H)-one]
14 | 7.36 | CNc1nc(Nc2cc3c(cc2OC)C(=O)N(C)CC3)ncc1C#N [Compound 16, 2-(7-methoxy-2-methyl-1-oxo-1,2,3,4-tetrahydroisoquinolin-6-ylamino)-4-(methylamino)pyrimidine-5-carbonitrile]
15 | 7.57 | CNc1nc(Nc2cc3cnn(C)c(=O)c3cc2OC)ncc1C(F)(F)F [Compound 17, 7-methoxy-2-methyl-6-(4-(methylamino)-5-(trifluoromethyl)pyrimidin-2-ylamino)phthalazin-1(2H)-one]
16 | 8.05 | CCN1Cc2c(ccc(Nc3ncc(C(F)(F)F)c(NC)n3)c2OC)C1=O [Compound 18, 2-ethyl-4-methoxy-5-(4-(methylamino)-5-(trifluoromethyl)pyrimidin-2-ylamino)isoindolin-1-one]
17 | 8.40 | CNc1nc(Nc2ccc3c(c2OC)CN(C(C)(C)O)C3=O)ncc1C(F)(F)F [Compound 19, 2-(2-hydroxypropan-2-yl)-4-methoxy-5-(4-(methylamino)-5-(trifluoromethyl)pyrimidin-2-ylamino)isoindolin-1-one]
18 | 8.05 | CNc1nc(Nc2ccc3c(c2OC)CN(C2COC2)C3=O)ncc1C(F)(F)F [Compound 20, 4-methoxy-5-(4-(methylamino)-5-(trifluoromethyl)pyrimidin-2-ylamino)-2-(oxetan-3-yl)isoindolin-1-one]
19 | 8.30 | CNc1nc(Nc2cc3c(cc2OC)C(=O)N(C)C3)ncc1C(F)(F)F [Compound 21, 6-methoxy-2-methyl-5-(4-(methylamino)-5-(trifluoromethyl)pyrimidin-2-ylamino)isoindolin-1-one]
20 | 8.52 | CNc1nc(Nc2cc3c(cc2Cl)c(C(=O)N2CCOCC2)cn3C)ncc1C(F)(F)F [Compound 22, (5-chloro-1-methyl-6-(4-(methylamino)-5-(trifluoromethyl)pyrimidin-2-ylamino)-1H-indol-3-yl)(morpholino)methanone]
21 | 8.00 | CNc1nc(Nc2cc3c(cc2OC)C(=O)N(CC(C)(C)O)C3)ncc1C(F)(F)F [Compound 23, 2-(2-hydroxy-2-methylpropyl)-6-methoxy-5-(4-(methylamino)-5-(trifluoromethyl)pyrimidin-2-ylamino)isoindolin-1-one]
22 | 8.52 | CCNc1nc(Nc2cc3c(cc2OC)C(=O)N(CC(C)(C)O)C3)ncc1C(F)(F)F [Compound 24, 5-(4-(ethylamino)-5-(trifluoromethyl)pyrimidin-2-ylamino)-2-(2-hydroxy-2-methylpropyl)-6-methoxyisoindolin-1-one]
23 | 8.22 | CNc1nc(Nc2cc3c(cc2OC)C(=O)N(C2COC2)C3)ncc1C(F)(F)F [Compound 25, 6-methoxy-5-(4-(methylamino)-5-(trifluoromethyl)pyrimidin-2-ylamino)-2-(oxetan-3-yl)isoindolin-1-one]
24 | 8.70 | CCNc1nc(Nc2cc3c(cc2OC)C(=O)N(C2COC2)C3)ncc1C(F)(F)F [Compound 26, 5-(4-(ethylamino)-5-(trifluoromethyl)pyrimidin-2-ylamino)-6-methoxy-2-(oxetan-3-yl)isoindolin-1-one]
25 | 8.22 | CNc1nc(Nc2cc3c(cc2Cl)c(C(=O)N(C)C)cn3C)ncc1C(F)(F)F [Compound 27, 5-chloro-N,N,1-trimethyl-6-(4-(methylamino)-5-(trifluoromethyl)pyrimidin-2-ylamino)-1H-indole-3-carboxamide]
26 | 8.40 | CNc1nc(Nc2cc3c(cc2Cl)c(C(=O)N2CCNCC2)cn3C)ncc1C(F)(F)F [Compound 28, (5-chloro-1-methyl-6-(4-(methylamino)-5-(trifluoromethyl)pyrimidin-2-ylamino)-1H-indol-3-yl)(piperazin-1-yl)methanone]
27 | 9.00 | CCNc1nc(Nc2cc3c(cc2Cl)c(C(=O)N2CCOCC2)cn3C)ncc1C(F)(F)F [Compound 29]
28 | 9.00 | CNc1nc(Nc2cc3c(cc2OC)c(C(=O)N2CCOCC2)cn3C)ncc1C(F)(F)F [Compound 30, (5-methoxy-1-methyl-6-(4-(methylamino)-5-(trifluoromethyl)pyrimidin-2-ylamino)-1H-indol-3-yl)(morpholino)methanone]
29 | 9.00 | CNc1nc(Nc2cc3c(cc2Cl)c(C(=O)N2CCN(C)CC2)cn3C)ncc1C(F)(F)F [Compound 31, (5-chloro-1-methyl-6-(4-(methylamino)-5-(trifluoromethyl)pyrimidin-2-ylamino)-1H-indol-3-yl)(4-methylpiperazin-1-yl)methanone]

Row | Compound | pKi
30 | CNc1nc(Nc2cc3oc(=O)n(C)c3cc2Cl)ncc1C(F)(F)F [Compound 5, 5-chloro-3-methyl-6-((4-(methylamino)-5-(trifluoromethyl)pyrimidin-2-yl)amino)benzo[d]oxazol-2(3H)-one] | 8.40
